According to patent US6429288B1, “Peptides containing an arginine mimetic for the treatment of bone metabolic disorders, their production, and drugs containing these compounds” (Roche Diagnostics GmbH, priority 1997, dated 2002):

System: primary cultures of osteoblasts from fetal rat calvarias
Experiment: in vitro DNA-synthesis assay
Type: cell-based
Protocol: Compounds of general formula (I) were tested in an in vitro DNA-synthesis assay. The cells used were primary cultures of osteoblasts from fetal rat calvarias. The experiments were performed in an analogous manner as published in Pfeilschifter et al., Endocrinology 126, 703 (1990).

Substance	Biological activity in % compared to control (100%) (0.001 μg/ml) [%]	Biological activity in % compared to control (100%) (0.01 μg/ml) [%]	Biological activity in % compared to control (100%) (0.1 μg/ml) [%]	Biological activity in % compared to control (100%) (1.0 μg/ml) [%]	Biological activity in % compared to control (100%) (10 μg/ml) [%]
Ada-Aba-W	173	184	228	223	261
Ada-Ava-W	116	152	182	183	229
Ada-SAW	122	148	199	162	188
